As usually defined, the IC50 is the concentration needed to halve the response being measured.

One experiment deals with recombinant human Nav1.7 (Homo sapiens (Human), UniProt Q15858). Description: FRET-based membrane potential assay, recombinant human sodium channel Nav1.7. The experiment is classed as cell-based. The note with it: HEK293 cells stably expressing recombinant human Nav1.7; veratridine + scorpion venom depolarization; read-out: FRET-Membrane Potential Nav1.7 IC50. The essentials: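 Channel activation used veratridine at its EC80, set by a dilution curve each experiment, together with Leiurus scorpion venom, added 3 min after compound. Membrane-potential ratio signals from FLIPR Tetra in HEPES-buffered HBSS were fitted to a four-parameter Hill equation for percent inhibition and IC50.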
Chain of recombinant human Nav1.7 (Q15858 whole entry): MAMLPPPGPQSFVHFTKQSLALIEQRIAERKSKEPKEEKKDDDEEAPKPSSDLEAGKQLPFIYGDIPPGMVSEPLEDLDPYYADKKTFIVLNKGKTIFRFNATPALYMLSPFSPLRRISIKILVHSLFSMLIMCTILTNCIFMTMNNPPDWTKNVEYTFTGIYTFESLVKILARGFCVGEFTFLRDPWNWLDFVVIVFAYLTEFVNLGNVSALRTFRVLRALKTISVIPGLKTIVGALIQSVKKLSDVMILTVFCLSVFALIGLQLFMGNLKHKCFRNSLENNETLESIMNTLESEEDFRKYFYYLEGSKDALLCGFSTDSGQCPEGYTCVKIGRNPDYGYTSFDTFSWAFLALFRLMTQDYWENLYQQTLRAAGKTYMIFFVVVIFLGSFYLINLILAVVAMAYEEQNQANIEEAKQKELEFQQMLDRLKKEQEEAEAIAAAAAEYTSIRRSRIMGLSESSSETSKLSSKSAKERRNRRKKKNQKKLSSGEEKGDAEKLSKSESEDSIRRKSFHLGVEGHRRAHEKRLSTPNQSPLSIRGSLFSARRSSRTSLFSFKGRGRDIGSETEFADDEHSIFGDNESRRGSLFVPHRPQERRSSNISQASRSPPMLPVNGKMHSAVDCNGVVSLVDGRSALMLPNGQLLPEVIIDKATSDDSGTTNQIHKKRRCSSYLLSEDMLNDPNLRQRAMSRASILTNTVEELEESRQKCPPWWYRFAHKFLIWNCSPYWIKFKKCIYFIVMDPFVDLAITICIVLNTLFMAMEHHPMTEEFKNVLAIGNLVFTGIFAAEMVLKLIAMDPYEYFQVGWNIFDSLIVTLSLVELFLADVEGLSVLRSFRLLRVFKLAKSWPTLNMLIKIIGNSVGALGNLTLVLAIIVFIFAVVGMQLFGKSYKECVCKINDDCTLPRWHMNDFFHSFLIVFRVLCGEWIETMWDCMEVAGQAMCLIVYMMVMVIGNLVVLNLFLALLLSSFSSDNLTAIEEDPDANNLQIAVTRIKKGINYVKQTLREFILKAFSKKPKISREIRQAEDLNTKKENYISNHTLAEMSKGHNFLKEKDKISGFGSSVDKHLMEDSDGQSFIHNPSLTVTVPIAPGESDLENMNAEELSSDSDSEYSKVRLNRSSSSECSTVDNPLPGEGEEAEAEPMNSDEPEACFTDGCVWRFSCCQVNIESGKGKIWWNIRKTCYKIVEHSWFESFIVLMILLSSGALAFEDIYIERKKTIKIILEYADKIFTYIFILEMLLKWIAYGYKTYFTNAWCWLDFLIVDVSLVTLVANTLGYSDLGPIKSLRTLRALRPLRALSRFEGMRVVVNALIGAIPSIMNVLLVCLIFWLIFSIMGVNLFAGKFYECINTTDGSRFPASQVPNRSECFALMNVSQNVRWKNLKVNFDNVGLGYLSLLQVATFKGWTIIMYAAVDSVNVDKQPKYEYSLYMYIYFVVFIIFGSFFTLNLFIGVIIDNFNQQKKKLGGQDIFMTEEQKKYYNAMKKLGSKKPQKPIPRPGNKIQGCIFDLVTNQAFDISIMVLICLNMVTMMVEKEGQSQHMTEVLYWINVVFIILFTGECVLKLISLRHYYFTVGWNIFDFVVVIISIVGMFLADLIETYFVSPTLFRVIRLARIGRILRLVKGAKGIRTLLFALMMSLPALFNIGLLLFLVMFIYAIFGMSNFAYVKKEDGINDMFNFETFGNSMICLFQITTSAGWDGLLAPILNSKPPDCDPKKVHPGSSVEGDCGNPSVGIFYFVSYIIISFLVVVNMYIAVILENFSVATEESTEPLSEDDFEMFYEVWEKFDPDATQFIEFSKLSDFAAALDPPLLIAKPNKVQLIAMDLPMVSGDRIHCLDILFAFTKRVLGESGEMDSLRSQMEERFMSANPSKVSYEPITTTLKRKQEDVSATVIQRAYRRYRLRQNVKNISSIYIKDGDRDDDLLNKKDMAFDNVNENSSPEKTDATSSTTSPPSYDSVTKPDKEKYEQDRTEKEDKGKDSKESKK
As to `COC1CN(C(=O)c2ccc3cc(Oc4ccc(C(F)(F)F)cn4)ccc3n2)C1` [Example 396, (3-methoxyazetidin-1-yl)(6-{[5-(trifluoromethyl)pyridin-2-yl]oxy}quinolin-2-yl)methanone], the 50% inhibitory concentration (IC50) came to 1.94 µM. On the same count and under the same terms, under `CO[C@H]1C[C@H](NC(=O)c2ccc3cc(Oc4ccc(C(F)(F)F)cn4)ccc3n2)C1` [Example 397, N-(trans-3-methoxycyclobutyl)-6-{[5-(trifluoromethyl)pyridin-2-yl]oxy}quinoline-2-carboxamide] stands 0.896 µM; under `CN(C(=O)c1ccc2cc(Oc3ccc(C(F)(F)F)cn3)ccc2n1)C1CS(=O)(=O)CC1O` (stereo not shown) [Example 398, N-(4-hydroxy-1,1-dioxidotetrahydrothiophen-3-yl)-N-methyl-6-{[5-(trifluoromethyl)pyridin-2-yl]oxy}quinoline-2-carboxamide], 6.11 µM; under `O=C(NC1COC1)c1ccc2cc(Oc3ccc(C(F)(F)F)cn3)ccc2n1` [Example 399, N-(oxetan-3-yl)-6-{[5-(trifluoromethyl)pyridin-2-yl]oxy}quinoline-2-carboxamide], 0.375 µM.

Turning to `O=C(NC1CCSCC1)c1ccc2cc(Oc3ccc(C(F)(F)F)cn3)ccc2n1` [Example 400, N-(tetrahydro-2H-thiopyran-4-yl)-6-{[5-(trifluoromethyl)pyridin-2-yl]oxy}quinoline-2-carboxamide], the IC50 stood at 1.22 µM. As to `O=C(N[C@H]1CCC[C@H]1O)c1ccc2cc(Oc3ccc(C(F)(F)F)cn3)ccc2n1` [Example 401, N-[(1S,2R)-2-hydroxycyclopentyl]-6-{[5-(trifluoromethyl)pyridin-2-yl]oxy}quinoline-2-carboxamide], the IC50 was 0.4 µM. The same measure, in the same setting: to `NC(=O)C1CN(C(=O)c2ccc3cc(Oc4ccc(C(F)(F)F)cn4)ccc3n2)CCN1` (stereo not shown) [Example 402, 4-[(6-{[5-(trifluoromethyl)pyridin-2-yl]oxy}quinolin-2-yl)carbonyl]piperazine-2-carboxamide] belongs 9.07 µM. Still for that read-out and setting: to `NC1CCN(C(=O)c2ccc3cc(Oc4ccc(C(F)(F)F)cn4)ccc3n2)CC1` [Example 403, (4-aminopiperidin-1-yl)(6-{[5-(trifluoromethyl)pyridin-2-yl]oxy}quinolin-2-yl)methanone] belongs 9.67 µM.

With `O=C(c1ccc2cc(Oc3ccc(C(F)(F)F)cn3)ccc2n1)N1CCC(F)(F)C1` [Example 404, (3,3-difluoropyrrolidin-1-yl)(6-{[5-(trifluoromethyl)pyridin-2-yl]oxy}quinolin-2-yl)methanone], the IC50 turned out to be 1.95 µM. Same read-out and setting: under `CC1(C)CCN(C(=O)c2ccc3cc(Oc4ccc(C(F)(F)F)cn4)ccc3n2)C1` [Example 405, (3,3-dimethylpyrrolidin-1-yl)(6-{[5-(trifluoromethyl)pyridin-2-yl]oxy}quinolin-2-yl)methanone] stands 1.4 µM; under `O=C(c1ccc2cc(Oc3ccc(C(F)(F)F)cn3)ccc2n1)N1CCNCC(F)C1` (stereo not shown) [Example 406, (6-fluoro-1,4-diazepan-1-yl)(6-{[5-(trifluoromethyl)pyridin-2-yl]oxy}quinolin-2-yl)methanone], 1.06 µM. Still for that read-out and setting: to `O=C(c1ccc2cc(Oc3ccc(C(F)(F)F)cn3)ccc2n1)N1CCNCC(O)C1` (stereo not shown) [Example 407, (6-hydroxy-1,4-diazepan-1-yl)(6-{[5-(trifluoromethyl)pyridin-2-yl]oxy}quinolin-2-yl)methanone] belongs 3.81 µM; to `CS(=O)(=O)NC1CCN(C(=O)c2ccc3cc(Oc4ccc(C(F)(F)F)cn4)ccc3n2)CC1` [Example 408, N-{1-[(6-{[5-(trifluoromethyl)pyridin-2-yl]oxy}quinolin-2-yl)carbonyl]piperidin-4-yl}methanesulfonamide], greater than 20 µM; to `O=C(NC[C@H]1CCCO1)c1ccc2cc(Oc3ccc(C(F)(F)F)cn3)ccc2n1` [Example 409, N-[(2R)-tetrahydrofuran-2-ylmethyl]-6-{[5-(trifluoromethyl)pyridin-2-yl]oxy}quinoline-2-carboxamide], 0.403 µM. Same read-out and setting: under `CN(C(=O)c1ccc2cc(Oc3ccc(C(F)(F)F)cn3)ccc2n1)C1CCOCC1` [Example 411, N-methyl-N-(tetrahydro-2H-pyran-4-yl)-6-{[5-(trifluoromethyl)pyridin-2-yl]oxy}quinoline-2-carboxamide] stands 14.1 µM. On to `CN(C)C(=O)CN(C)C(=O)c1ccc2cc(Oc3ccc(C(F)(F)F)cn3)ccc2n1` [Example 413, N-[2-(dimethylamino)-2-oxoethyl]-N-methyl-6-{[5-(trifluoromethyl)pyridin-2-yl]oxy}quinoline-2-carboxamide], for which the IC50 was found to be 12.4 µM.

With `O=C(c1ccc2cc(Oc3ccc(C(F)(F)F)cn3)ccc2n1)N1CCC(C(F)(F)F)C1` (stereo not shown) [Example 414, (6-{[5-(trifluoromethyl)pyridin-2-yl]oxy}quinolin-2-yl)[3-(trifluoromethyl)pyrrolidin-1-yl]methanone], the IC50 was found to be 5.02 µM. With `O=C(c1ccc2cc(Oc3ccc(C(F)(F)F)cn3)ccc2n1)N1CC(F)C(F)C1` (stereo not shown) [Example 415, (3,4-difluoropyrrolidin-1-yl)(6-{[5-(trifluoromethyl)pyridin-2-yl]oxy}quinolin-2-yl)methanone], the IC50 came out at 1.61 µM. `O=C1CCC(NC(=O)c2ccc3cc(Oc4ccc(C(F)(F)F)cn4)ccc3n2)CN1` (stereo not shown) [Example 416, N-(6-oxopiperidin-3-yl)-6-{[5-(trifluoromethyl)pyridin-2-yl]oxy}quinoline-2-carboxamide]: the half-maximal inhibitory concentration (IC50) came to 0.7 µM. On the same count and under the same terms, under `O=C(c1ccc2cc(Oc3ccc(C(F)(F)F)cn3)ccc2n1)N1CCNC2(CCC2)C1` [Example 418, 5,8-diazaspiro[3.5]non-8-yl(6-{[5-(trifluoromethyl)pyridin-2-yl]oxy}quinolin-2-yl)methanone] stands 0.539 µM; under `CN(C(=O)c1ccc2cc(Oc3ccc(C(F)(F)F)cn3)ccc2n1)C1CCS(=O)(=O)C1` (stereo not shown) [Example 419, N-(1,1-dioxidotetrahydrothiophen-3-yl)-N-methyl-6-{[5-(trifluoromethyl)pyridin-2-yl]oxy}quinoline-2-carboxamide], 11.9 µM; under `O=C(NC1CCSC1)c1ccc2cc(Oc3ccc(C(F)(F)F)cn3)ccc2n1` (stereo not shown) [Example 420, N-(tetrahydrothiophen-3-yl)-6-{[5-(trifluoromethyl)pyridin-2-yl]oxy}quinoline-2-carboxamide], 2.43 µM.

As for `O=C(NCCN1CCNC1=O)c1ccc2cc(Oc3ccc(C(F)(F)F)cn3)ccc2n1` [Example 421, N-[2-(2-oxoimidazolidin-1-yl)ethyl]-6-{[5-(trifluoromethyl)pyridin-2-yl]oxy}quinoline-2-carboxamide], the IC50 is 1.06 µM. In the case of `O=C(NCCNc1ccccn1)c1ccc2cc(Oc3ccc(C(F)(F)F)cn3)ccc2n1` [Example 422, N-[2-(pyridin-2-ylamino)ethyl]-6-{[5-(trifluoromethyl)pyridin-2-yl]oxy}quinoline-2-carboxamide], the 50% inhibitory concentration (IC50) is 0.617 µM. The same measure, in the same setting: to `O=C(NCCn1ccnc1)c1ccc2cc(Oc3ccc(C(F)(F)F)cn3)ccc2n1` [Example 423, N-[2-(1H-imidazol-1-yl)ethyl]-6-{[5-(trifluoromethyl)pyridin-2-yl]oxy}quinoline-2-carboxamide] belongs 0.83 µM. On the same count and under the same terms, under `CC1(O)CC(NC(=O)c2ccc3cc(Oc4ccc(C(F)(F)F)cn4)ccc3n2)C1` (stereo not shown) [Example 426, N-(3-hydroxy-3-methylcyclobutyl)-6-{[5-(trifluoromethyl)pyridin-2-yl]oxy}quinoline-2-carboxamide] stands 0.972 µM; under `COCCOC1CN(C(=O)c2ccc3cc(Oc4ccc(C(F)(F)F)cn4)ccc3n2)C1` [Example 427, [3-(2-methoxyethoxy)azetidin-1-yl](6-{[5-(trifluoromethyl)pyridin-2-yl]oxy}quinolin-2-yl)methanone], greater than 20 µM. Still for that read-out and setting: under `CS(=O)(=O)NC1CN(C(=O)c2ccc3cc(Oc4ccc(C(F)(F)F)cn4)ccc3n2)C1` [Example 428, N-{1-[(6-{[5-(trifluoromethyl)pyridin-2-yl]oxy}quinolin-2-yl)carbonyl]azetidin-3-yl}methanesulfonamide] stands 10.3 µM.

The same experiment, now with this note: read-out: FRET-Membrane Potential Nav1.7 IC50.
For `O=C(c1ccc2cc(Oc3ccc(C(F)(F)F)cn3)ccc2n1)N1C[C@H](O)C[C@@H](O)C1` [Example 395, [(3R,5R)-3,5-dihydroxypiperidin-1-yl](6-{[5-(trifluoromethyl)pyridin-2-yl]oxy}quinolin-2-yl)methanone], the IC50 was greater than 20 µM.

On to `C[C@H](O)CNC(=O)c1ccc2cc(Oc3ccc(C(F)(F)F)cn3)ccc2n1` [Example 410, N-[(2S)-2-hydroxypropyl]-6-{[5-(trifluoromethyl)pyridin-2-yl]oxy}quinoline-2-carboxamide], for which the IC50 was determined as 0.557 µM. Same read-out and setting: to `O=C(NCC1(O)COC1)c1ccc2cc(Oc3ccc(C(F)(F)F)cn3)ccc2n1` [Example 412, N-[(3-hydroxyoxetan-3-yl)methyl]-6-{[5-(trifluoromethyl)pyridin-2-yl]oxy}quinoline-2-carboxamide] belongs 0.513 µM; to `O=C(NCC1CCN1)c1ccc2cc(Oc3ccc(C(F)(F)F)cn3)ccc2n1` (stereo not shown) [Example 424, N-(azetidin-2-ylmethyl)-6-{[5-(trifluoromethyl)pyridin-2-yl]oxy}quinoline-2-carboxamide], 1.31 µM; to `O=C(N[C@H]1CS(=O)(=O)C[C@@H]1O)c1ccc2cc(Oc3ccc(C(F)(F)F)cn3)ccc2n1` [Example 425, N-[(3R,4R)-4-hydroxy-1,1-dioxidotetrahydrothiophen-3-yl]-6-{[5-(trifluoromethyl)pyridin-2-yl]oxy}quinoline-2-carboxamide], 9.09 µM. On the same count and under the same terms, under `O=C(c1ccc2cc(Oc3ccc(C(F)F)cn3)ccc2n1)N1CC(N2CCOCC2)C1` [Example 429, (6-{[5-(difluoromethyl)pyridin-2-yl]oxy}quinolin-2-yl) [3-(morpholin-4-yl)azetidin-1-yl]methanone] stands 13.8 µM.

The values above are taken from patent US9452986B2, “6-heteroaryloxy- or 6-aryloxy-quinoline-2-carboxamides and method of use” (AbbVie Inc., priority 2014, dated 2016).
